Measured values as given in patent US11554110B2, “Pemafibrate dosing regimens” (Kowa Company, Ltd., priority 2017, dated 2023).

Experiments:
Format in all cases: in vivo, healthy adult subjects
[1] = Drug interaction study of pemafibrate with rifampicin (plasma pharmacokinetics of pemafibrate); conditions: for AUC(0-inf) / Cmax: human, plasma, po, 0.4 mg, geometric mean, oral, fasting
Experimental: A study was conducted to investigate the effect of rifampicin on the pharmacokinetics of pemafibrate in healthy adult subjects.
Subjects were orally administered on the following schedule. The administration of 0.4 mg of pemafibrate on Days 1 and 4 was carried out under fasting for at least 8 hours, and the fasting was maintained for 4 hours after the administration. • Day 1: Pemafibrate 0.4 mg alone • Day 4: A single dose of 0.4 mg of pemafibrate plus 600 mg of rifampicin • Days 5-6: Rifampicin 600 mg alone [Measurement]
(§1) Plasma concentration of pemafibrate was measured on blood samples from patients taken prior to and at 0.25, 0.5, 1, 1.5, 2, 3, 4, 6, 8, 10, 12, 14, 16, 24, 36, 48, 72 hours after administration of the drug on Days 1 and 4.
For estimates of the Cmax of pemafibrate and the area under the concentration-time curves (AUC0-inf) up to infinity hours, the geometric mean values and the ratios of the geometric mean values for concomitant administration to those for the single administration are shown in Table 1.

[2] = Drug interaction study of pemafibrate with clarithromycin (plasma pharmacokinetics of pemafibrate); conditions: for AUC(0-inf) / Cmax: human, plasma, po, 0.4 mg, geometric mean
Experimental: A study was conducted to investigate the effect of clarithromycin on the pharmacokinetics of pemafibrate in healthy adult subjects.
20 healthy adult subjects
Subjects were orally administered on the following schedule. The administration of 0.4 mg of pemafibrate on Days 1 and 9 was carried out under fasting for at least 8 hours, and the fasting was maintained for 4 hours after the administration. • Day 1: Pemafibrate 0.4 mg alone • Day 4 to 8: Clarithromycin 500 mg twice per day (1000 mg/day) • Day 9: Pemafibrate 0.4 mg single dose and Clarithromycin 500 mg twice per day (1000 mg/day) • Day 10 to 11: Clarithromycin 500 mg twice per day (1000 mg/day) Measurement
Plasma concentration of pemafibrate was measured on blood samples from patients collected prior to and at 0.25, 0.5, 1, 1.5, 2, 3, 4, 6, 8, 10, 12, 14, 16, 24, 36, 48, 72 hours after administration of 0.4 mg of pemafibrate on Days 1 and 9.
For estimates of the Cmax of pemafibrate and the area under the concentration-time curves (AUC0-inf) up to infinity hours, the geometric mean values and the ratios of the geometric mean values for concomitant administration to those for the single administration are shown in Table 2.

[3] = Drug interaction study of pemafibrate with cyclosporine (plasma pharmacokinetics of pemafibrate); conditions: for AUC(0-inf) / Cmax: human, plasma, po, 0.4 mg, geometric mean, oral, fasting
Experimental: A study was conducted to investigate the effect of cyclosporine on the pharmacokinetics of pemafibrate in healthy adult subjects.
Subjects were orally administered on the following schedule. Drug administration was carried out under fasting for at least 8 hours, and fasting was maintained for 4 hours after administration. • Day 1: Pemafibrate 0.4 mg alone • Day 4: Combined single dose of 0.4 mg of pemafibrate and 600 mg of cyclosporine (Neoral® or its equivalent) [Measurement]
as §1
For estimates of the Cmax of pemafibrate and the area under the concentration-time curves (AUC0-inf) up to infinity hours, the geometric mean values and the ratios of the geometric mean values for concomitant administration to those for the single administration are shown in Table 3.

[4] = Drug interaction study of pemafibrate with clopidogrel (plasma pharmacokinetics of pemafibrate); conditions: for AUC(0-inf) / Cmax: human, plasma, po; for AUC0-inf ratio (concomitant use/single use) / Cmax ratio (concomitant use/single use): ratio of geometric means
Experimental: A study was conducted to investigate the effect of clopidogrel on the pharmacokinetics of pemafibrate in healthy adult subjects.
Subjects were orally administered on the following schedule. Pemafibrate administration on Days 1, 4, and 7 was carried out under fasting for at least 8 hours and maintained fasting for 4 hours after administration. • Day 1: Pemafibrate 0.4 mg alone • Day 4: A single dose of 0.4 mg of pemafibrate plus 391.5 mg of clopidogrel sulfate (equivalent to 300 mg of clopidogrel) • Day 5 to 6: Clopidogrel Sulfate 91.875 mg (equivalent to Clopidogrel 75 mg) alone • Day 7: A single dose of 0.4 mg of pemafibrate and 91.875 mg of clopidogrel sulfate (equivalent to 75 mg of clopidogrel) • Day 8 to 9: Clopidogrel Sulfate 91.875 mg (equivalent to Clopidogrel 75 mg) alone Measurement
Plasma concentration of pemafibrate was measured on blood samples from patients taken prior to and at 0.25, 0.5, 1, 1.5, 2, 3, 4, 6, 8, 10, 12, 14, 16, 24, 36, 48, 72 hours after administration of the drug on Days 1, 4, and 7.
For estimates of the Cmax of pemafibrate and the area under the concentration-time curves (AUC0-inf) up to infinity hours, the geometric mean values and the ratios of the geometric mean values of the single-dose concomitant administration (Day 4) to those for the single administration (Day 1) are shown in Table 4.
For the Cmax and AUC0-inf of pemafibrate, the geometric mean values and the ratios of the geometric mean values for concomitant administration after repeated administration of clopidogrel (day 7) to those for the single administration (day 1) are shown in Table 5.

[5] = Day 1, pemafibrate 0.4 mg alone, read-out: AUC0-inf, single administration
[6] = Day 1, pemafibrate 0.4 mg alone, read-out: Cmax, single administration
[7] = ratio of geometric means, with rifampicin 600 mg vs pemafibrate alone
[8] = ratio of geometric means, with clarithromycin 1000 mg/day vs pemafibrate alone
[9] = ratio of geometric means, with cyclosporine 600 mg vs pemafibrate alone
[10] = Day 4 (clopidogrel 300 mg single dose) vs Day 1
[11] = Day 7 (after repeated clopidogrel, 75 mg) vs Day 1

AUC(0-inf) [1, 5]: 20.1 ng·h/mL
Cmax [1, 6]: 5.67 ng/mL
AUC(0-inf) ([1]; Day 4, single dose pemafibrate 0.4 mg plus rifampicin 600 mg, read-out: AUC0-inf, concomitant administration): 219 ng·h/mL
Cmax ([1]; Day 4, single dose pemafibrate 0.4 mg plus rifampicin 600 mg, read-out: Cmax, concomitant administration): 53.5 ng/mL
AUC0-inf ratio (concomitant use/single use) [1, 7]: 10.9009
Cmax ratio (concomitant use/single use) [1, 7]: 9.436
AUC(0-inf) ([2]; Day 1, pemafibrate 0.4 mg alone, oral, fasting, read-out: AUC0-inf, single administration): 17 ng·h/mL
Cmax ([2]; Day 1, pemafibrate 0.4 mg alone, oral, fasting, read-out: Cmax, single administration): 4.67 ng/mL
AUC(0-inf) ([2]; Day 9, pemafibrate 0.4 mg single dose with clarithromycin 500 mg twice per day (given from Day 4), read-out: AUC0-inf, concomitant administration): 35.7 ng·h/mL
Cmax ([2]; Day 9, pemafibrate 0.4 mg single dose with clarithromycin 500 mg twice per day (given from Day 4), read-out: Cmax, concomitant administration): 11.3 ng/mL
AUC0-inf ratio (concomitant use/single use) [2, 8]: 2.0975
Cmax ratio (concomitant use/single use) [2, 8]: 2.4246
AUC(0-inf) [3, 5]: 13.4 ng·h/mL
Cmax [3, 6]: 4.59 ng/mL
AUC(0-inf) ([3]; Day 4, combined single dose pemafibrate 0.4 mg and cyclosporine 600 mg, read-out: AUC0-inf, concomitant administration): 187 ng·h/mL
Cmax ([3]; Day 4, combined single dose pemafibrate 0.4 mg and cyclosporine 600 mg, read-out: Cmax, concomitant administration): 41.2 ng/mL
AUC0-inf ratio (concomitant use/single use) [3, 9]: 13.9947
Cmax ratio (concomitant use/single use) [3, 9]: 8.9644
AUC0-inf, concomitant administration ([4]; geometric mean, Day 7, pemafibrate 0.4 mg plus clopidogrel sulfate 91.875 mg (equivalent to 75 mg of clopidogrel) after repeated administration of clopidogrel): 33.5611 ng·h/mL
AUC(0-inf) ([4]; 0.4 mg, geometric mean, Day 1, pemafibrate 0.4 mg alone, oral, fasting, read-out: AUC0-inf, single administration): 16.1 ng·h/mL
Cmax ([4]; 0.4 mg, geometric mean, Day 1, pemafibrate 0.4 mg alone, oral, fasting, read-out: Cmax, single administration): 4.77 ng/mL
Cmax ([4]; 0.4 mg, geometric mean, Day 4, single dose pemafibrate 0.4 mg plus clopidogrel sulfate 391.5 mg (equivalent to 300 mg of clopidogrel), read-out: Cmax, concomitant administration): 7.08 ng/mL
AUC(0-inf) ([4]; geometric mean, Day 4, single dose pemafibrate 0.4 mg plus clopidogrel sulfate 391.5 mg (equivalent to 300 mg of clopidogrel), read-out: AUC0-inf, concomitant administration): 38.1 ng·h/mL
Cmax ([4]; geometric mean, Day 7, pemafibrate 0.4 mg plus clopidogrel sulfate 91.875 mg (equivalent to 75 mg of clopidogrel) after repeated administration of clopidogrel, read-out: Cmax, concomitant administration): 6.39 ng/mL
AUC0-inf ratio (concomitant use/single use) [4, 10]: 2.3728
Cmax ratio (concomitant use/single use) [4, 10]: 1.4855
AUC0-inf ratio (concomitant use/single use) [4, 11]: 2.0876
Cmax ratio (concomitant use/single use) [4, 11]: 1.3415
Compound: CC[C@@H](Oc1cccc(CN(CCCOc2ccc(OC)cc2)c2nc3ccccc3o2)c1)C(=O)O [pemafibrate, (2R)-2-[3-({1,3-benzoxazol-2-yl[3-(4-methoxyphenoxy)propyl]amino}methyl)phenoxy]butanoic acid]
plasma concentration of pemafibrate, concomitant vs alone ([1]; concomitant administration with rifampicin compared with pemafibrate alone): increase in the plasma concentration of pemafibrate
plasma concentration of pemafibrate, concomitant vs alone ([2]; concomitant administration with clarithromycin compared with pemafibrate alone): increase in the plasma concentration of pemafibrate
plasma concentration of pemafibrate, concomitant vs alone ([3]; concomitant administration with cyclosporine compared with pemafibrate alone): increase in the plasma concentration of pemafibrate
plasma concentration of pemafibrate, concomitant vs alone ([4]; concomitant administration after repeated administration of clopidogrel (day 7) compared with pemafibrate alone (day 1)): increase in the plasma concentration of pemafibrate
plasma concentration of pemafibrate, concomitant vs alone ([4]; single-dose concomitant administration with clopidogrel (Day 4) compared with pemafibrate alone (Day 1)): increase in the plasma concentration of pemafibrate
